Legend:
[1] = biological target: T1, cystic fibrosis transmembrane conductance regulator (CFTR) (Homo sapiens, UniProt P13569); experiment: ATP hydrolysis of purified CFTR (kcat […] to […] per minute at […]); inside-out patch-clamp; format: biochemical
T1 construct: WT human CFTR, PKA-phosphorylated

[2] = biological target: T2, cystic fibrosis transmembrane conductance regulator (CFTR) (Homo sapiens, UniProt P13569, W401A); experiment: inside-out patch-clamp, inhibition kinetics at […]; format: cell-based
T2 construct: C-terminally GFP-fused CFTR in CHO-K1 cells
T2 sequence (P13569 whole entry W401A, the tested form may be a part): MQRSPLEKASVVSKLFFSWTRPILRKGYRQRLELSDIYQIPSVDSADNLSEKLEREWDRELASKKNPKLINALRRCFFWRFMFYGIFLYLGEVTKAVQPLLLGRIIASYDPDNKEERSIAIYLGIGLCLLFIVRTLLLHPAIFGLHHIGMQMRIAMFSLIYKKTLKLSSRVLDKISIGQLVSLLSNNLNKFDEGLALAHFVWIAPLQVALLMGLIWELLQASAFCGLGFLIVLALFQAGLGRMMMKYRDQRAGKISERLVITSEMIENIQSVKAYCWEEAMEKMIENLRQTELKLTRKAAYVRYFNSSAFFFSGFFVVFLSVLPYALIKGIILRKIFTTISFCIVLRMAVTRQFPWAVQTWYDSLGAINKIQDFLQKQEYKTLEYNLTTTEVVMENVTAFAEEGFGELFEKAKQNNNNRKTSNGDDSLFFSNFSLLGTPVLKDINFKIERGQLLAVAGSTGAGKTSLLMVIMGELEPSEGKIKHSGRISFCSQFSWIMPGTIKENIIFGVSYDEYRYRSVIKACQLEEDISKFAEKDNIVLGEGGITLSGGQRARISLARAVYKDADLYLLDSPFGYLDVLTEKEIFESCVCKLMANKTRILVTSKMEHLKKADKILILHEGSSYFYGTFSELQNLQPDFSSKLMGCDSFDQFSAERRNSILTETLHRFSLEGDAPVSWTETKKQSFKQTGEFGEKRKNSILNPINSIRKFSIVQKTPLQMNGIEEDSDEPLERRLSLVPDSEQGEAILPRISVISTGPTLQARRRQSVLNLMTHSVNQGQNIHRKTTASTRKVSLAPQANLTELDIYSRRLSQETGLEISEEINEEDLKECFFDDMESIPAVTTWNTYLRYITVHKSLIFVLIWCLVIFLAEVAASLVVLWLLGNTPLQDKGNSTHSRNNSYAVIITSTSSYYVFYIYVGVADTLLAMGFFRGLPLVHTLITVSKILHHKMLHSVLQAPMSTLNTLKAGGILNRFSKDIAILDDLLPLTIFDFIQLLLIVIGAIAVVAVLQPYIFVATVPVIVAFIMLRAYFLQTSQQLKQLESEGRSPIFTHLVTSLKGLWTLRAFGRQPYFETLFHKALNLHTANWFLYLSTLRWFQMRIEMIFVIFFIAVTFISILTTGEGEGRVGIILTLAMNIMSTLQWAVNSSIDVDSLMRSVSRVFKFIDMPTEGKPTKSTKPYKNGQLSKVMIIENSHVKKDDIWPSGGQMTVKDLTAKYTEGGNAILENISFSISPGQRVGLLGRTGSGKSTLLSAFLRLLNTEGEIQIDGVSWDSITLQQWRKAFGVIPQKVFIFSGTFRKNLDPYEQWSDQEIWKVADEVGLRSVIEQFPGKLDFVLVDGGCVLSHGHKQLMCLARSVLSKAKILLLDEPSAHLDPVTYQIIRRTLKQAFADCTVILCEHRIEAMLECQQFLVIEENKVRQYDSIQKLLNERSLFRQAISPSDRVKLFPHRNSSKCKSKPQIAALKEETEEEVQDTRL

T1 sequence (P13569 whole entry): as the sequence (P13569 whole entry W401A, the tested form may be a part) above, with A401W counted along it

Compound | inhibition at 10 µM [1] [%] | inside-out patch-clamp, inhibition kinetics at 10 μM [2]
O=C(O)c1ccc(/C=C2\SC(=S)N(c3cccc(C(F)(F)F)c3)C2=O)cc1 [CFTRinh-172] | 72 | –
Cn1c(=O)c2c(-c3ccccc3)n3c(c2n(C)c1=O)[C@H](c1ccc(Br)o1)Oc1ccc(C(=O)O)cc1-3 [(R)-BPO-27] | – | 4.5 ± 0.8 s (t1/2 of inhibition at 10 µM)

— publication PMC12317126 (Nature Communications, 2025)
